{
  "source": "patent US20100255020A1",
  "about": "“METHOD FOR INDUCING CYTOTOXIC T-CELLS, CYTOTOXIC T-CELL INDUCERS, AND PHARMACEUTICAL COMPOSITIONS AND VACCINES EMPLOYING THEM” (NEC CORPORATION, priority 2007, published 2010)",
  "key": {"HLA-A*2402 molecule": {"target": "HLA-A*2402 molecule (Homo sapiens, UniProt P04439, D101N/D140Y/D185E/E176V/E190D/F33S/G103R/G107R/I119L/I121M/I306V/K335N/L105A/L180Q/L300P/N151K/N90K/Q86E/Q94H/R106L/R138H/R89G/T104I/T345S/V100E/W191G/Y123F)", "test": "Peptide binding to HLA-A*2402 molecule on C1R-A24 cells (flow cytometry, Kd)", "settings": "HLA-A*2402, C1R-A24 cells; read-out: Binding assay data (−log Kd) (converted)", "experimental": "The ability of a peptide to bind to an HLA-A*2402 molecule, which is a product of the HLA-A*2402 gene, was measured using C1R-A24 cells expressing the HLA-A*2402 molecule (cells generated by Professor Masafumi Takiguchi, Kumamoto University being supplied with permission by Associate Professor Masaki Yasukawa, Ehime University).\nC1R-A24 cells were first exposed to acidic conditions at a pH of 3.3 for 30 seconds, thus dissociating and removing a β2m light chain, which is associated with HLA class I molecules in common, and an endogenous peptide originally bound to the HLA-A*2402 molecule. After neutralization, purified β2m was added to C1R-A24 cells, the obtained product was added to serial dilutions of a peptide, and incubated on ice for 4 hours. […]\nSubsequently, the number of MHC-pep complexes per C1R-A24 cell (proportional to the intensity of fluorescence of the above-mentioned fluorescent antibody) was quantitatively measured using a FACScan fluorescence-activated flow cytometer (Becton Dickinson Biosciences). A dissociation constant Kd value between the HLA-A*2402 molecule and the peptide was calculated from the average intensity of fluorescence per cell by a method published in the literature (Udaka et al., Immunogenetics, 51, 816-828, 2000)."}, "HLA-A*0201 molecule": {"target": "HLA-A*0201 molecule (Homo sapiens, UniProt P04439, D140Y/D185E/D98H/E176V/E277Q/G131W/G231S/I119V/I121R/I166T/I218V/L300P/L318F/N151K/N90K/P208A/P217A/Q86G/Q94H/R138H/R169H/T345S)", "test": "Peptide binding to HLA-A*0201 molecule on JY cells (flow cytometry, Kd)", "settings": "HLA-A*0201, JY cells", "experimental": "The ability of a peptide to bind to an HLA-A*0201 molecule, which is a product of the HLA-A*0201 gene, was measured using strain JY cells expressing the HLA-A*0201 molecule.\nJY cells were first exposed to acidic conditions at a pH of 3.8 for 30 seconds, thus dissociating and removing a β2m light chain and an endogenous peptide, which were noncovalently associated with the HLA-A* 0201 molecule. After neutralization, a reconstitution experiment was carried out.\nThe above-mentioned JY cells and the purified […] were added to serial dilutions of peptide for which the binding ability needs to be measured, and incubation was carried out on ice for 4 hours. HLA-A*0201 molecules that had reassociated up to this time point were stained using the fluorescently-labeled monoclonal antibody BB7.2, a conformation dependent monoclonal Ab specific for an assembled form of HLA-A*0201 molecule.\nSubsequently, the amount of fluorescence per cell was measured using a flow cytometer and a dissociation constant Kd value was calculated by a method published in the literature (Udaka et al., Immunogenetics, 51, 816-828, 2000)."}, "[1]": {"test_system": "peptide-loaded target cells (C1R-A24, RA24, T2)", "test": "51Cr release assay of PBMC killing activity against peptide-loaded target cells", "assay_type": "cell-based, human", "experimental": "Target cells were labeled with ^51Cr and loaded with HLA-binding peptide of interest. 5,000 or 10,000 cells/well of target cells were placed in 96-well U-bottom plate, and then, PBMCs having been stimulated twice in vitro were added thereto as a responder. Cells were incubated at 37° C. for 5 hours and ^51Cr released from the damaged cells during the incubation was measured, and % specific lysis was calculated. As target cells C1R-A24 or RA24 cells were used as a target when reactivity to HLA-A*2402 binding peptides were examined, and T2 cells were used as a target and incubation was carried out for 2 hours after addition of responder cells. Percent specific lysis was calculated as follows. % specific lysis=(test release-spontaneous release)/(total release-spontaneous release)×100."}, "[2]": {"test_system": "W10-specific CD8 positive T cells", "test": "HLA-A24 tetramer flow cytometry of peptide-specific T cells", "assay_type": "cell-based, human", "settings": "patient KB07-006, PBMCs incubated with W10 peptide", "experimental": "HLA-A24 tetramer was prepared by modifying a method by Altman et al. (Altman, J D, Moss, P A., Goulder, P J, Barouch, D H, McHeyzer-Williams, M G, Bell, J I, McMichael, A J, Davis, M M. Phenotypic analysis of antigen-specific T lymphocytes. Science […] 274, 94-96.)\nHLA-A24 tetramer was prepared by expressing an HLA-A*2402 molecule in E. coli and W10 peptide was bound thereto. Furthermore, the C-terminus of the complex was modified by a site-specific biotinyltion. The product was then complexed with streptavidin (SA), giving rise to a molecular assembly consisting of 4 molecules of W10-bound HLA-A*2402 molecules and 1 SA.\nHere in this assay, T cells specific for a HLA-A24-W10 complex was fluorescently labeled with […] (phycoerythrin) conjugated SA and antigen specific T cells were identified by flow cytometry.\ncDNAs of HLA-A*2402, which is an H-chain constituting an HLA-A*2402 molecule, and human β2m 02-microglobulin) which is a light chain, were inserted into a pET-21d+vector (Novagen, Merck) under T7 promoter, respectively. The resultant vector was introdyced into E. coli BL21 (DE3) pLysS, and expression of the gene was induced using IPTG. […]\nThis HLA-A*2402-W10 monomer was associated with PE-labeled SA at a molecular ratio of 4:1, thus preparing HLA tetramer. […] T cells were incubated with HLA-A*2402-W10 or HLA-A*2402-HER2-63 on ice for 1 hour and then analyzed by flow cytometry."}, "[3]": {"settings": "human, in vivo"}},
  "note": "Where no end group is shown, it is not given here.",
  "data": [
    {"sequence": "ALLPAVPSL [W10]", "values": [
      {"measurement": "Kd", "setting": "HLA-A*2402 molecule", "result": 0.692, "unit": "nM"},
      {"measurement": "Binding assay data (−log Kd)", "setting": "HLA-A*0201 molecule", "result": 7.84},
      {"measurement": "Peptide-reactive cytolytic cells in PBMCs of patients", "setting": "[1]; HLA-A*0201 binding peptides, T2 targets", "result": "contain cytolytic cells that recognize"},
      {"measurement": "Peptide-reactive cytolytic cells in PBMCs of patients", "setting": "[1]; HLA-A*2402 binding peptides, FIG. 9a and b", "result": "cytolytic cells include those reactive"},
      {"measurement": "W10-specific CD8 positive T cells (HLA-A24-W10 tetramer staining)", "setting": "[2]", "result": "increased"},
      {"measurement": "Adverse event due to peptide immunotherapy", "setting": "[3]", "result": "no adverse event due to peptide immunotherapy was observed, except for an erythema and mild swelling at the site of immunization"},
      {"measurement": "Creatinine (Cre) adverse event", "setting": "[3]", "result": "Grade 2 increase of Cre"}
    ]}
  ]
}
